One assay has as its target T1, Fes (Homo sapiens, UniProt P07332).
T1 construct: purchased Upstate Biotechnologies (kinase profiler service)
Kind of assay: kinase profiler, Fes. Particulars: 10 μM compound, 100 μM ATP, mean of % control. The format is biochemical. As for the experimental part:
(§1) Compound 45 was tested for its ability to function as a kinase inhibitor using the kinase profiler service from Upstate Biotechnologies. The general protocol employed is as follows: recombinant kinases were incubated with specific substrates, 10 mM MgAcetate, and [γ-^33P-ATP]. The reaction was initiated by the addition of MgATP mix. After incubation at room temperature for 40 minutes, the reaction was stopped by the addition of 5 μl of a 3% phosphoric acid solution. 10 μl of the reaction was then spotted on to a P30 filtermat and washed 3 times for 5 min. in 75 mM phosphoric acid and once in methanol prior to drying and scintillation counting. Each reaction was performed in duplicate with 100 μM ATP −/+10 μM compound 45. Results are presented in Table IV and are expressed as the mean of % control (no compound). PI 3-kinase-γ (PI3K-γ) activity was determined with the PIProfiler™ assay, which measures the binding of the GRP1 pleckstrin homology (PH) domain to PIP3, the product of PI3K acting on its physiological substrate PIP2.

A further assay has as its target T2, Aurora-A (Homo sapiens, UniProt O14965).
T2 construct: purchased Upstate Biotechnologies (kinase profiler service)
The assay is described as follows: kinase profiler, Aurora-A. The format is biochemical. To be noted: 10 μM compound, 100 μM ATP, mean of % control. On the procedure:
as §1

Another assay deals with T3, TrkA (Homo sapiens, UniProt P04629).
T3 construct: purchased Upstate Biotechnologies (kinase profiler service)
T3 sequence (P04629 33-796): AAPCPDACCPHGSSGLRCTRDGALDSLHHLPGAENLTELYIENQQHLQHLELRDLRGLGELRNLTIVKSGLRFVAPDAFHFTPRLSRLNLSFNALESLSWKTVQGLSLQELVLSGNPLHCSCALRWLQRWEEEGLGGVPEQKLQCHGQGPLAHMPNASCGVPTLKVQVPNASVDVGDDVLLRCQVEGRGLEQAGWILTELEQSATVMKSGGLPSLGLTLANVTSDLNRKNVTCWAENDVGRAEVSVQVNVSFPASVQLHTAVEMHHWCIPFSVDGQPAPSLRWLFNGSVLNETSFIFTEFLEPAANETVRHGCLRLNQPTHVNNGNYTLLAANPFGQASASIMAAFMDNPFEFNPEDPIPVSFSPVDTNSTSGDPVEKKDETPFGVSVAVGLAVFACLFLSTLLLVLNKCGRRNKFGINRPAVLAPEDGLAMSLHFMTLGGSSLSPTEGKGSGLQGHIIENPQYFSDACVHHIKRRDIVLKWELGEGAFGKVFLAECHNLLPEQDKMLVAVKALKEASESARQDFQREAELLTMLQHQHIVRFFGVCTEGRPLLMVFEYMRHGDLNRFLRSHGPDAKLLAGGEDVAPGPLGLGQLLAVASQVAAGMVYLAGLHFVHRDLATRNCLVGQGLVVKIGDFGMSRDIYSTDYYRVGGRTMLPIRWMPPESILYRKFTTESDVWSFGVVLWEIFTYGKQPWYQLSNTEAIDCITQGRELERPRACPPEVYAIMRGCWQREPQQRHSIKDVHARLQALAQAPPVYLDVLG
Kind of assay: kinase profiler, TrkA. It counts as biochemical. To be noted: 10 μM compound, 100 μM ATP, mean of % control. On the procedure: as §1

In the next assay the target is T4, CK2 (Homo sapiens, UniProt P68400).
T4 construct: purchased Upstate Biotechnologies (kinase profiler service)
The assay is described as follows: kinase profiler, CK2. The format is biochemical. To be noted: 10 μM compound, 100 μM ATP, mean of % control. As for the experimental part: as §1

Another assay deals with T5, Yes (Homo sapiens, UniProt P07947).
T5 construct: purchased Upstate Biotechnologies (kinase profiler service)
The assay is described as follows: kinase profiler, Yes. The format is biochemical. Particulars: 10 μM compound, 100 μM ATP, mean of % control. As for the experimental part: as §1

A further assay has as its target T6, CDK7/cyclinH/MAT1 (Homo sapiens, UniProt P50613).
T6 construct: purchased Upstate Biotechnologies (kinase profiler service)
Kind of assay: kinase profiler, CDK7/cyclinH/MAT1. The format is biochemical. To be noted: 10 μM compound, 100 μM ATP, mean of % control. As for the experimental part:
as §1

The subject of assay [1] is human colon carcinoma cells (HT-29). The assay is described as follows: XTT cell proliferation assay, HT-29 cells, 48 h. It counts as cell-based. To be noted: read-out: % Survival. On the procedure: Selected compounds of Formula I were tested for anti-cancer activity in vitro using a human colon carcinoma cells (HT-29) and human non-small cell lung cancer cells (H460). The cells were maintained in α-MEM medium (Wisent, St-Bruno, Qc) supplemented with 10% FBS, and grown at 37° C. in an atmosphere of 5% CO2. Cells were transferred onto 150 mm tissue culture plates and grown until sub-confluency (70-80%) prior to their use.
The anti-cancer activity in vitro was evaluated by a cell proliferation assay based on the ability of live cells to reduce the tetrazolium salt XTT to orange coloured compounds of formazan (XTT cell proliferation kit II, Roche Applied Science, Montreal, QC).
Approximately 4×10^3 colon cancer cells (HT-29) or 2×10^3 non-small cell lung cancer cells (NCI-H460) in 100 μl of complete culture medium were plated onto 96-well microtiter plates and incubated overnight at 37° C. The medium was then removed by inverting the plate and patting on a sterile absorbent cloth. Fifty μl of medium containing the test compound at either 25 or 100 μM, were added to the wells containing cells and incubated at 37° C. in an atmosphere of 5% CO2 for 48 h. Following incubation, 25 μl of an XTT reaction mixture (XTT at a final concentration of 0.3 mg/ml) were added to each well and the plates were incubated for a further 4 h. The absorbance of each sample was then determined at a wavelength of 490 nm/650 nm as reference. Each compound was tested in duplicate and the results are reported as averages.
For orientation: Tetrazolium dyes change colour on reduction, which living cells bring about.

The next assay deals with T7, Ros (Homo sapiens, UniProt P08922).
T7 construct: purchased Upstate Biotechnologies (kinase profiler service)
The assay is described as follows: kinase profiler, Ros. It counts as biochemical. To be noted: 10 μM compound, 100 μM ATP, mean of % control. As for the experimental part:
as §1

In the next assay the target is T8, GSK3α (Homo sapiens, UniProt P49840).
T8 construct: purchased Upstate Biotechnologies (kinase profiler service)
The assay is described as follows: kinase profiler, GSK3α. The format is biochemical. To be noted: 10 μM compound, 100 μM ATP, mean of % control. As for the experimental part:
as §1

Another assay has as its target T9, MKK4 (Mus musculus, UniProt P47809).
T9 construct: purchased Upstate Biotechnologies (kinase profiler service)
Kind of assay: kinase profiler, MKK4. It counts as biochemical, human. To be noted: 10 μM compound, 100 μM ATP, mean of % control. As for the experimental part: as §1

The next assay has as its system HT-29 colon cancer cells. Kind of assay: growth suppression of HT-29 colon cancer cells. The format is cell-based. Particulars: Homo sapiens.
The next assay deals with T10, CHK1 (Homo sapiens, UniProt O14757).
T10 construct: purchased Upstate Biotechnologies (kinase profiler service)
The assay is described as follows: kinase profiler, CHK1. The format is biochemical. Particulars: 10 μM compound, 100 μM ATP, mean of % control. As for the experimental part:
as §1

The next assay deals with T11, PKBα (Homo sapiens, UniProt P31749).
T11 construct: purchased Upstate Biotechnologies (kinase profiler service)
The assay is described as follows: kinase profiler, PKBα. It counts as biochemical. Particulars: 10 μM compound, 100 μM ATP, mean of % control. On the procedure: as §1

The next assay deals with T12, Lyn (Homo sapiens, UniProt P07948).
T12 construct: purchased Upstate Biotechnologies (kinase profiler service)
Kind of assay: kinase profiler, Lyn. It counts as biochemical. To be noted: 10 μM compound, 100 μM ATP, mean of % control. On the procedure: as §1

A further assay concerns the target T13, PI3K-δ (Homo sapiens, UniProt O00329).
T13 construct: purchased Upstate Biotechnologies (kinase profiler service)
The assay is described as follows: kinase profiler, PI3K-δ. It counts as biochemical. Particulars: 10 μM compound, mean of % control. As for the experimental part: as §1

In a further assay the target is T14, Met (Homo sapiens, UniProt P08581).
T14 construct: purchased Upstate Biotechnologies (kinase profiler service)
The assay is described as follows: kinase profiler, Met. The format is biochemical. To be noted: 10 μM compound, 100 μM ATP, mean of % control. As for the experimental part: as §1

Another assay addresses T15, SRC (Homo sapiens, UniProt P12931).
T15 construct: purchased Upstate Biotechnologies (kinase profiler service)
Kind of assay: kinase profiler, SRC. The format is biochemical. To be noted: 10 μM compound, 100 μM ATP, mean of % control. As for the experimental part: as §1

T13 sequence (O00329 whole entry): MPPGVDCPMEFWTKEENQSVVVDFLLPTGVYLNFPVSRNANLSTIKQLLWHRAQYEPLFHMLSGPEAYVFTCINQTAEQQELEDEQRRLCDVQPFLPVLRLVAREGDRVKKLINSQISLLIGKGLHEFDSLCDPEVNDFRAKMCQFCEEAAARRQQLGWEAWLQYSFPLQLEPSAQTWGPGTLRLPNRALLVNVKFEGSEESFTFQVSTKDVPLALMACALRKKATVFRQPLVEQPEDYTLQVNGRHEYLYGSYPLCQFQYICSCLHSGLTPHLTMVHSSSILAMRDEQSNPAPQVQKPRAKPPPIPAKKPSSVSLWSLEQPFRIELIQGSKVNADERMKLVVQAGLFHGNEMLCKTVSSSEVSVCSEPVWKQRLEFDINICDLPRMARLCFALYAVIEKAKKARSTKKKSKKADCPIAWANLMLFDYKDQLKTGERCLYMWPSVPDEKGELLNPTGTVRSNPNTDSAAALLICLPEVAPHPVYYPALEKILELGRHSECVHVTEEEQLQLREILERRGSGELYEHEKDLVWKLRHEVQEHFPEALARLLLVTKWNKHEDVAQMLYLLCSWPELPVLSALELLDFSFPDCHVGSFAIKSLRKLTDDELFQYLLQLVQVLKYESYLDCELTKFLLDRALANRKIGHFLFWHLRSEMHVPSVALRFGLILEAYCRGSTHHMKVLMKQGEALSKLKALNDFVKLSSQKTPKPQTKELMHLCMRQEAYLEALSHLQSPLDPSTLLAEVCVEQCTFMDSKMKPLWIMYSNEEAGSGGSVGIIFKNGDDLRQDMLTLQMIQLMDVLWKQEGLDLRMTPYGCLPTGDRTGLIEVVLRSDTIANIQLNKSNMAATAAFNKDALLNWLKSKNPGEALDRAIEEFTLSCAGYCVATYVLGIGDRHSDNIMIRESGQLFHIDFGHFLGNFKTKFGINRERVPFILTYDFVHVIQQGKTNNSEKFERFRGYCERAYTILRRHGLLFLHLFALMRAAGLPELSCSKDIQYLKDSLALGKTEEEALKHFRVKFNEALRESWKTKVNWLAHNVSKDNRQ
T13 sequence (P27986 whole entry partner): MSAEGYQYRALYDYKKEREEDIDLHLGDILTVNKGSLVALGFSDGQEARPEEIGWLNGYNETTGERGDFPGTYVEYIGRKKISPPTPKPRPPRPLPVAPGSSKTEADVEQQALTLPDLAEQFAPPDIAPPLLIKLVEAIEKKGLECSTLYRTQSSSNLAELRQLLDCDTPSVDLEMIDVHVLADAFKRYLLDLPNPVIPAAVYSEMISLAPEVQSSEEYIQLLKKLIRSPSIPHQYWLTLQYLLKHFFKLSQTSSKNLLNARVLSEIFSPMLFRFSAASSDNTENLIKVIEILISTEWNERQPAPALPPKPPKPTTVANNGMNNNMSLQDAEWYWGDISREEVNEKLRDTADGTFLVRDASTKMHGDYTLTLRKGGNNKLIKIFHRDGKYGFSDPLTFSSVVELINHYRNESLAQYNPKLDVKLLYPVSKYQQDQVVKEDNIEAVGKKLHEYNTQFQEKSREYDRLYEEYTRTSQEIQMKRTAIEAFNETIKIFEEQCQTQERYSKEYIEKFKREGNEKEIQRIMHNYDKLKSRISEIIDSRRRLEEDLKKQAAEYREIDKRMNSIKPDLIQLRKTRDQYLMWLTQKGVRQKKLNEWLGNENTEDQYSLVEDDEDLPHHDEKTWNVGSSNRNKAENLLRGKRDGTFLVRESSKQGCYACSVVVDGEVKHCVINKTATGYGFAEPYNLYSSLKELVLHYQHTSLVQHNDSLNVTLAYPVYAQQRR
T6 sequence (P50613 whole entry): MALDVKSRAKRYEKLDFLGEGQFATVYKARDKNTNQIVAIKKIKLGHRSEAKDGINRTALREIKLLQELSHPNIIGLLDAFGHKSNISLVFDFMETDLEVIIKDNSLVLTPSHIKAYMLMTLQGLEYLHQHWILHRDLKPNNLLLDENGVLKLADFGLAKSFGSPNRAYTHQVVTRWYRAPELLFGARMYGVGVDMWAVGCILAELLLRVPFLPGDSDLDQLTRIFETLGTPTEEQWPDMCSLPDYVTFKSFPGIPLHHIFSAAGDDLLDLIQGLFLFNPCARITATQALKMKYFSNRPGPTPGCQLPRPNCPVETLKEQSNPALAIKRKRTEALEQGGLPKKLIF
T6 sequence (P51946 whole entry partner): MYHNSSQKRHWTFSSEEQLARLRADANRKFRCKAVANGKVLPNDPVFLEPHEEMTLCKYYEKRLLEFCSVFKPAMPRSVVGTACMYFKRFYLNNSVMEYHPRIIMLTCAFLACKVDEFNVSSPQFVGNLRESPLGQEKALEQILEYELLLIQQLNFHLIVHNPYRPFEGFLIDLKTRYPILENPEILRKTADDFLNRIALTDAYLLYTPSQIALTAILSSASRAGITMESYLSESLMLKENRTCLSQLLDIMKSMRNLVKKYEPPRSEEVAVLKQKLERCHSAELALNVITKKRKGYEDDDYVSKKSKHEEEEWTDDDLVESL
T6 sequence (P51948 whole entry partner): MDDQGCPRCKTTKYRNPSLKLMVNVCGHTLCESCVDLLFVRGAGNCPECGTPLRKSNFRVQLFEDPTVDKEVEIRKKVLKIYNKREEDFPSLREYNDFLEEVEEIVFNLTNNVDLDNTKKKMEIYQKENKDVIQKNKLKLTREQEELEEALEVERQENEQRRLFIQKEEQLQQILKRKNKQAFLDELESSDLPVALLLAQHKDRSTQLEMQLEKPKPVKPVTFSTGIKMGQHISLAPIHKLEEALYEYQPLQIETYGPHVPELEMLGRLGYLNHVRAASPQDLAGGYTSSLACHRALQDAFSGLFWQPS
T9 sequence (P47809 whole entry): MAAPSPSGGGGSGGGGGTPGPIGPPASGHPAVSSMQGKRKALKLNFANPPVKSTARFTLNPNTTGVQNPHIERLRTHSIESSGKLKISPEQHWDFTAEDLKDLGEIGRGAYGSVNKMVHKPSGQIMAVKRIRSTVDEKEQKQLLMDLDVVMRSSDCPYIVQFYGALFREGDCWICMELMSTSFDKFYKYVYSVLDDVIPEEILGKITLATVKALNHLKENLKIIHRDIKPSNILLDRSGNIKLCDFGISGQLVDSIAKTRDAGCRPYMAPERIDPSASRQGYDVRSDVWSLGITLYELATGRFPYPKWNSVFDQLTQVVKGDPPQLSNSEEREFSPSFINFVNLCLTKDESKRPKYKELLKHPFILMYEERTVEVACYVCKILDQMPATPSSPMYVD
T1 sequence (P07332 whole entry): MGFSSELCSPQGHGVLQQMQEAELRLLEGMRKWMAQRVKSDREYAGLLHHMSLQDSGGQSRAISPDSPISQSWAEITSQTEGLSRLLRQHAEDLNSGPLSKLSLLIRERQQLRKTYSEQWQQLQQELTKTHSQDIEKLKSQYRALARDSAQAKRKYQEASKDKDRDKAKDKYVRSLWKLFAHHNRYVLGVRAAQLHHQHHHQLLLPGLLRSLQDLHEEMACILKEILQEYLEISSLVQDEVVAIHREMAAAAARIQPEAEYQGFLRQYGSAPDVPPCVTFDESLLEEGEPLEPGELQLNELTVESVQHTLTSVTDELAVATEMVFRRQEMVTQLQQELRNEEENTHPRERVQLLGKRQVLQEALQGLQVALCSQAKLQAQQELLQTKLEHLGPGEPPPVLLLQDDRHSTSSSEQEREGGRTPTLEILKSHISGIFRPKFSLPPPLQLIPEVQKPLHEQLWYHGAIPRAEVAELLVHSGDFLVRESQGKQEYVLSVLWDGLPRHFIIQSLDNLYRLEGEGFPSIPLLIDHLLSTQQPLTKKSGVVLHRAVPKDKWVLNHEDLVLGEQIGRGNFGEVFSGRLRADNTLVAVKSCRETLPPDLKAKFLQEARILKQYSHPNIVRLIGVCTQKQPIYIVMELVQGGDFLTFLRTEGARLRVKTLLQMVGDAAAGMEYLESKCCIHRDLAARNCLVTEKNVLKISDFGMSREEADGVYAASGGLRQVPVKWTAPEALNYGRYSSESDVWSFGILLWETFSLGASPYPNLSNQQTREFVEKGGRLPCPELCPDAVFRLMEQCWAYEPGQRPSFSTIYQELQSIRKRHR

For orientation: GI50 means the concentration at which growth is held to half of that of the control. A low value points to more potent growth inhibition. Turning to `Brc1ccc2[nH]cc(-c3nc4c5ccccc5c5ccccc5c4[nH]3)c2c1` [Compound 45], the activity at 10 µM was 99% on Fes; 54% on Aurora-A; 56% at TrkA; 91% at CK2; 91% on Yes; 95% on CDK7/cyclinH/MAT1. Besides, the activity at 10 µM at Ros came out at 107%; at GSK3α, 96%; on MKK4, 96%; on CHK1, 111%; at PKBα, 95%; on Lyn, 81%. Further, the values for the activity at 10 µM at PI3K-δ, at Met and at SRC were 9%, 129% and 102%, respectively. Moreover, the viability at 25 µM in assay [1] (25 μM compound) is 88.9%. Besides, the viability at 100 µM in [1] (100 μM compound) stood at 35%. This compound displayed a 50% growth inhibitory concentration (GI50) in the assay with HT-29 colon cancer cells of 2600 nM.

Values taken from patent US10080739B2, “Aryl imidazoles and their use as anti-cancer agents” (Aptose Biosciences Inc., priority 2003, dated 2018).
